Results published in patent publication US8613914B2, “Peptidomimetic sulfamide compounds and antiviral uses thereof” (Novartis AG, priority 2009, dated 2013).

Each compound was assayed against HCV NS3-4A serine protease (full-length NS3-4A protein) (Hepatitis C virus genotype 1a (isolate 1) (HCV), UniProt P26664) (assay: HCV NS3-4A protease assay). Details: strain HCV-1, fluorogenic peptide substrate, read-out: Protease assay Ex. 12 IC50.
Format: biochemical, HCV genotype 1a
Protocol: The inhibitory activity of certain compounds of Table A against HCV NS3-4A serine protease is determined in a homogenous assay using the full-length NS3-4A protein (genotype 1a, strain HCV-1) and a commercially available internally-quenched fluorogenic peptide substrate as described by Taliani, M., et al. 1996 Anal. Biochem. 240:60-67, which is incorporated by reference in its entirety.

Sequence of HCV NS3-4A serine protease (full-length NS3-4A protein) (P26664 1027-1657): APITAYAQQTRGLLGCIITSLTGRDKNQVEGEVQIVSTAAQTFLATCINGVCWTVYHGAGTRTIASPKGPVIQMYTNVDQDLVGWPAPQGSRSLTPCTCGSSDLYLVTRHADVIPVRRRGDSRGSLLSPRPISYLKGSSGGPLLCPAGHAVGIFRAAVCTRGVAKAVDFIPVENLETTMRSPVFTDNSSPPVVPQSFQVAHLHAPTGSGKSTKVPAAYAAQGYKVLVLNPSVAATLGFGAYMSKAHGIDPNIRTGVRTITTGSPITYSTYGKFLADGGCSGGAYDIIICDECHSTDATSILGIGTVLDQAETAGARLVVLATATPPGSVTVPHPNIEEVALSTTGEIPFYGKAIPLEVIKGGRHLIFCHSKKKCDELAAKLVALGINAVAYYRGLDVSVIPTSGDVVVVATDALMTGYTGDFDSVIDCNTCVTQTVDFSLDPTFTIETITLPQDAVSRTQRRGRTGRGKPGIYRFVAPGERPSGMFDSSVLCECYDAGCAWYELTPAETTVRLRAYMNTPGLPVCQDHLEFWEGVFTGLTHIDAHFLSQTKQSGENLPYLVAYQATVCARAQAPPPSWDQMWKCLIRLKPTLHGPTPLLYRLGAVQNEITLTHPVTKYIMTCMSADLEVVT
Sequence of HCV NS3-4A serine protease (full-length NS3-4A protein) (P26664 1658-1711 partner): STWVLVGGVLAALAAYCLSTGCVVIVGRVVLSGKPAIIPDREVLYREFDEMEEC

Structure (SMILES) | IC50 [nM]
[2H]C([2H])([2H])C([2H])([2H])N1CCCC[C@H]1C(=O)NC(C(=O)N[C@H](C(=O)N1C[C@]2(C[C@H]1C(=O)N[C@]1(C(=O)NS(=O)(=O)N3CCCC3)C[C@H]1C=C)C(C)(C)C21CCC1)C(C)(C)C)C1CCCCC1 (stereo partly drawn) [Compound 139, (5R,8S)-7-[(2S)-2-{[(2S)-2-cyclohexyl-2-({[(2S)-1-d5-ethylpiperidin-2-yl]carbonyl}amino)acetyl]amino}-3,3-dimethylbutanoyl]-10,10-dimethyl-N-{(1R,2S)-1-[(pyrrolidin-1-ylsulfonyl)carbamoyl]-2-vinylcyclopropyl}-7-azadispiro[3.0.4.1]decane-8-carboxamide-d5] | 3.5
C=C[C@@H]1C[C@]1(NC(=O)C1C[C@@]2(CN1C(=O)[C@@H](NC(=O)c1cccc(C(=O)NCCC)c1)C(C)(C)C)C(C)(C)C21CCC1)C(=O)NS(=O)(=O)N1CCCC1 (stereo partly drawn) [Compound 68, N-[(1S)-1-{[(5R)-10,10-dimethyl-8-({(1R,2S)-1-[(pyrrolidin-1-ylsulfonyl)carbamoyl]-2-vinylcyclopropyl}carbamoyl)-7-azadispiro[3.0.4.1]dec-7-yl]carbonyl}-2,2-dimethylpropyl]-N′-propylisophthalamide] | 950
C=C[C@@H]1C[C@]1(NC(=O)[C@@H]1C[C@@]2(CN1C(=O)[C@@H](NC(=O)[C@@H](NC(=O)[C@@H]1CCCCN1C(C)C)C(C)(C)C)C(C)(C)C)C(C)(C)C21CCC1)C(=O)NS(=O)(=O)N1CCCC1 [Compound 3, (5R,8S)-7-[(2S)-2-{[(2S)-2-({[(2S)-1-isopropylpiperidin-2-yl]carbonyl}amino)-3,3-dimethylbutanoyl]amino}-3,3-dimethylbutanoyl]-10,10-dimethyl-N-{(1R,2S)-1-[(pyrrolidin-1-ylsulfonyl)carbamoyl]-2-vinylcyclopropyl}-7-azadispiro[3.0.4.1]decane-8-carboxamide] | 6
C=C[C@@H]1C[C@]1(NC(=O)[C@@H]1C[C@@]2(CN1C(=O)[C@@H](NC(=O)[C@@H](NC(=O)[C@@H]1CCCN1CC)c1ccccc1)C(C)(C)C)C(C)(C)C21CCC1)C(=O)NS(=O)(=O)N1CCCC1 [Compound 102, (5R,8S)-7-[(2S)-2-{[(2S)-2-({[(2S)-1-ethylpyrrolidin-2-yl]carbonyl}amino)-2-phenylacetyl]amino}-3,3-dimethylbutanoyl]-10,10-dimethyl-N-{(1R,2S)-1-[(pyrrolidin-1-ylsulfonyl)carbamoyl]-2-vinylcyclopropyl}-7-azadispiro[3.0.4.1]decane-8-carboxamide] | 8
C=C[C@@H]1C[C@]1(NC(=O)[C@@H]1C[C@@]2(CN1C(=O)[C@@H](NC(=O)[C@@H](NC(=O)[C@@H]1CCCCN1C(C)C)C1CCCC1)C(C)(C)C)C(C)(C)C21CCC1)C(=O)NS(=O)(=O)N1CCCC1 [Compound 58, (5R,8S)-7-[(2S)-2-{[(2S)-2-cyclopentyl-2-({[(2S)-1-isopropylpiperidin-2-yl]carbonyl}amino)acetyl]amino}-3,3-dimethylbutanoyl]-10,10-dimethyl-N-{(1R,2S)-1-[(pyrrolidin-1-ylsulfonyl)carbamoyl]-2-vinylcyclopropyl}-7-azadispiro[3.0.4.1]decane-8-carboxamide] | 3.5
CC[C@@H]1C[C@]1(NC(=O)[C@@H]1C[C@@]2(CN1C(=O)[C@@H](NC(=O)[C@@H](NC(=O)[C@@H]1CCCN1C(C)C)C1CCCCC1)C(C)(C)C)C(C)(C)C21CCC1)C(=O)NS(=O)(=O)N(CC)CC [Compound 117, (5R,8S)-7-[(2S)-2-{[(2S)-2-cyclohexyl-2-({[(2S)-1-isopropylpyrrolidin-2-yl]carbonyl}amino)acetyl]amino}-3,3-dimethylbutanoyl]-N-[(1R,2R)-1-{[(diethylamino)sulfonyl]carbamoyl}-2-ethylcyclopropyl]-10,10-dimethyl-7-azadispiro[3.0.4.1]decane-8-carboxamide] | 5.5
C=C[C@@H]1C[C@]1(NC(=O)[C@@H]1C[C@@]2(CN1C(=O)[C@@H](NC(=O)[C@@H](NC(=O)[C@@H]1CCCN1CC(F)(F)F)C1CCCCC1)C1CCOCC1)C(C)(C)C21CCC1)C(=O)NS(=O)(=O)N1CCCC1 [Compound 71, (5R,8S)-7-[(2S)-2-{[(2S)-2-cyclohexyl-2-({[(2S)-1-(2,2,2-trifluoroethyl)pyrrolidin-2-yl]carbonyl}amino)acetyl]amino}-2-(tetrahydro-2H-pyran-4-yl)acetyl]-10,10-dimethyl-N-{(1R,2S)-1-[(pyrrolidin-1-ylsulfonyl)carbamoyl]-2-vinylcyclopropyl}-7-azadispiro[3.0.4.1]decane-8-carboxamide] | 40
C=C[C@@H]1C[C@]1(NC(=O)[C@@H]1C[C@@]2(CN1C(=O)[C@@H](NC(=O)[C@@H](NC(=O)[C@H]1CCCCN1C(C)C)C1CCCCC1)C(C)(C)C)C(C)(C)C21CCC1)C(=O)NS(=O)(=O)N(C)C(C)C [Compound 119, (5R,8S)-7-[(2S)-2-{[(2S)-2-cyclohexyl-2-({[(2R)-1-isopropylpiperidin-2-yl]carbonyl}amino)acetyl]amino}-3,3-dimethylbutanoyl]-N-[(1R,2S)-1-({[isopropyl(methyl)amino]sulfonyl}carbamoyl)-2-vinylcyclopropyl]-10,10-dimethyl-7-azadispiro[3.0.4.1]decane-8-carboxamide] | 6.5
C=C[C@@H]1C[C@]1(NC(=O)[C@@H]1C[C@@]2(CN1C(=O)[C@@H](NC(=O)[C@@H](NC(=O)C(C)(C)N1CCCCC1)C(C)(C)C)C(C)(C)C)C(C)(C)C21CCC1)C(=O)NS(=O)(=O)N1CCCC1 [Compound 24, (5R,8S)-7-[(2S)-2-({(2S)-3,3-dimethyl-2-[(2-methyl-2-piperidin-1-ylpropanoyl)amino]butanoyl}amino)-3,3-dimethylbutanoyl]-10,10-dimethyl-N-{(1R,2S)-1-[(pyrrolidin-1-ylsulfonyl)carbamoyl]-2-vinylcyclopropyl}-7-azadispiro[3.0.4.1]decane-8-carboxamide] | 65
C=C[C@@H]1C[C@]1(NC(=O)[C@@H]1C[C@@]2(CN1C(=O)[C@@H](NC(=O)[C@@H](NC(=O)c1cnccn1)C1CCCCC1)C1CCOCC1)C(C)(C)C21CCC1)C(=O)NS(=O)(=O)N1CCCC1 [Compound 42, (5R,8S)-7-[(2S)-2-({(2S)-2-cyclohexyl-2-[(pyrazin-2-ylcarbonyl)amino]acetyl}amino)-2-(tetrahydro-2H-pyran-4-yl)acetyl]-10,10-dimethyl-N-{(1R,2S)-1-[(pyrrolidin-1-ylsulfonyl)carbamoyl]-2-vinylcyclopropyl}-7-azadispiro[3.0.4.1]decane-8-carboxamide] | 40
C=C[C@@H]1C[C@]1(NC(=O)[C@@H]1C[C@@]2(CN1C(=O)[C@@H](NC(=O)[C@@H](NC(=O)C(C)(C)N1CCCC1)C(C)(C)C)C(C)(C)C)C(C)(C)C21CCC1)C(=O)NS(=O)(=O)N1CCCC1 [Compound 10, (5R,8S)-7-[(2S)-2-({(2S)-3,3-dimethyl-2-[(2-methyl-2-pyrrolidin-1-ylpropanoyl)amino]butanoyl}amino)-3,3-dimethylbutanoyl]-10,10-dimethyl-N-{(1R,2S)-1-[(pyrrolidin-1-ylsulfonyl)carbamoyl]-2-vinylcyclopropyl}-7-azadispiro[3.0.4.1]decane-8-carboxamide] | 65
C=C[C@@H]1C[C@]1(NC(=O)[C@@H]1C[C@@]2(CN1C(=O)[C@@H](NC(=O)[C@@H](NC(=O)[C@@H]1CCCCN1C(C)C)C1CCCCC1)C(C)(C)C)C(C)(C)C21CCC1)C(=O)NS(=O)(=O)N(CC)CCC [Compound 106, (5R,8S)-7-[(2S)-2-{[(2S)-2-cyclohexyl-2-({[(2S)-1-isopropylpiperidin-2-yl]carbonyl}amino)acetyl]amino}-3,3-dimethylbutanoyl]-N-[(1R,2S)-1-({[ethyl(propyl)amino]sulfonyl}carbamoyl)-2-vinylcyclopropyl]-10,10-dimethyl-7-azadispiro[3.0.4.1]decane-8-carboxamide] | 10
C=C[C@@H]1C[C@]1(NC(=O)[C@@H]1C[C@@]2(CN1C(=O)[C@@H](NC(=O)[C@@H](NC(=O)[C@@H]1CCCCN1C(C)C)C1CCCCC1)C1(C)CCOCC1)C(C)(C)C21CCC1)C(=O)NS(=O)(=O)N(CC)CC [Compound 150, (5R,8S)-7-[(2S)-2-{[(2S)-2-cyclohexyl-2-({[(2S)-1-isopropylpiperidin-2-yl]carbonyl}amino)acetyl]amino}-2-(4-methyltetrahydro-2H-pyran-4-yl)acetyl]-N-[(1R,2S)-1-{[(diethylamino)sulfonyl]carbamoyl}-2-vinylcyclopropyl]-10,10-dimethyl-7-azadispiro[3.0.4.1]decane-8-carboxamide] | 2.4
C=C[C@@H]1C[C@]1(NC(=O)[C@@H]1C[C@@]2(CN1C(=O)[C@@H](NC(=O)[C@@H](NC(=O)c1cnc3ccccc3c1)C1CCCCC1)C(C)(C)C)C(C)(C)C21CCC1)C(=O)NS(=O)(=O)N1CCCC1 [Compound 196, (5R,8S)-7-[(2S)-2-({cyclohexyl[(quinolin-3-ylcarbonyl)amino]acetyl}amino)-3,3-dimethylbutanoyl]-10,10-dimethyl-N-{(1R,2S)-1-[(pyrrolidin-1-ylsulfonyl)carbamoyl]-2-vinylcyclopropyl}-7-azadispiro[3.0.4.1]decane-8-carboxamide] | 20
C=C[C@@H]1C[C@]1(NC(=O)[C@@H]1C[C@@]2(CN1C(=O)[C@@H](NC(=O)[C@@H](NC(=O)[C@@H]1CCN1C(C)C)C(C)(C)C)C(C)(C)C)C(C)(C)C21CCC1)C(=O)NS(=O)(=O)N1CCCC1 [Compound 12, (5R,8S)-7-[(2S)-2-{[(2S)-2-({[(2S)-1-isopropylazetidin-2-yl]carbonyl}amino)-3,3-dimethylbutanoyl]amino}-3,3-dimethylbutanoyl]-10,10-dimethyl-N-{(1R,2S)-1-[(pyrrolidin-1-ylsulfonyl)carbamoyl]-2-vinylcyclopropyl}-7-azadispiro[3.0.4.1]decane-8-carboxamide] | 40
